The values below come from patent US20240300937A1, “Substituted 6-(Pyrimidin-4-yl)Quinoline Compounds as Cyclin Dependent Kinase Inhibitors” (BeiGene, Ltd., priority 2022, published 2024).

For experiment [1], the target named is CDK6/Cyclin D3 (Homo sapiens (Human), UniProt Q00534). The experiment in a line: CDK6/Cyclin D3 kinase TR-FRET inhibition assay. Particulars: 1 mM ATP, Rb (Ser780)-biotin substrate, read-out: CDK6D3 IC50. Type of experiment: biochemical. The protocol:
(§1) Compounds disclosed herein were tested for inhibition of CDK4/Cyclin D1 or CDK6/Cyclin D3 kinase in an assay based on the time-resolved fluorescence-resonance energy transfer (TR-FRET) methodology. The assay was carried out in 384-well low volume black plates in a reaction mixture containing CDK4/Cyclin D1 or CDK6/Cyclin D3, 1 mM ATP, 0.15 μM Rb (Ser780)-biotin substrate and 0-10 μM compound in buffer containing 50 mM HEPES pH7.0, 0.02% NaN3, 0.01% BSA, 0.1 mM Orthovanadate, 50 mM MgCl2, 1 mM DTT and 0.005% Tween-20. The kinase was incubated with compound for 60 minutes at room temperature and the reaction was initiated by the addition of ATP and Rb (Ser780)-biotin substrate. After reaction at room temperature for 120 minutes, an equal volume of stop/detection solution was added according to the manufacture's instruction (Cisbio Bioassays). The stop/detection solution contained Streptavidin-XL665 and Anti-pRb (Ser780) mAb-Eu Cryptate in Detection buffer (Cisbio Bioassays). Plates were incubated at room temperature for 60 minutes, and the TR-FRET signals (ex337 nm, em665 nm/620 nm) were recorded on a PHERAstar FSX plate reader (BMG Labtech). The inhibition percentage of CDK4/Cyclin D1 or CDK6/Cyclin D3 kinase activity in presence of increasing concentrations of compounds was calculated based on the ratio of fluorescence at 665 nm to that at 620 nm. The IC50 for each compound was derived from fitting the data to the four-parameter logistic equation by Dotmatics.

The target of experiment [2] is CDK4/Cyclin D1 (Homo sapiens (Human), UniProt P11802). The experiment in a line: CDK4/Cyclin D1 kinase TR-FRET inhibition assay. Type of experiment: biochemical. Conditions: 1 mM ATP, Rb (Ser780)-biotin substrate, read-out: CDK4D1 IC50. The protocol:
as §1
(In general: In TR-FRET formats the signal depends on donor and acceptor labels being close together.)

CDK6/Cyclin D3, sequence (Q00534 whole entry): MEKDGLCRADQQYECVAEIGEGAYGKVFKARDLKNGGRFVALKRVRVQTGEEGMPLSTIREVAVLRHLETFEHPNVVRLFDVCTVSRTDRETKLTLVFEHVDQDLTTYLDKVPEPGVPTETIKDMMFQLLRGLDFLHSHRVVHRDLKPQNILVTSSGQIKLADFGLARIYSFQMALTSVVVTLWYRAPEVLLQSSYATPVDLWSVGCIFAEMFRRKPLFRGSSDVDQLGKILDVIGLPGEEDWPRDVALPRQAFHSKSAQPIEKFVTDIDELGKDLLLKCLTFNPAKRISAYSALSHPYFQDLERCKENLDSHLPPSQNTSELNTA
CDK6/Cyclin D3, sequence (P30281 whole entry partner): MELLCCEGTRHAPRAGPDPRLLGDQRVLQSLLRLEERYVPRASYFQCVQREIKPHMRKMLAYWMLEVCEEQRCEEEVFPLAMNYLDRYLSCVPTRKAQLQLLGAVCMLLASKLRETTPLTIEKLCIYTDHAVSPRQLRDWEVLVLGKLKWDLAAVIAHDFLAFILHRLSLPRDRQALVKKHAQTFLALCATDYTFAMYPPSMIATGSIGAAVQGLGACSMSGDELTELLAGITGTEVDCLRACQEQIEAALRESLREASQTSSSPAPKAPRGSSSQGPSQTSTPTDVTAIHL
CDK4/Cyclin D1, sequence (P11802 whole entry): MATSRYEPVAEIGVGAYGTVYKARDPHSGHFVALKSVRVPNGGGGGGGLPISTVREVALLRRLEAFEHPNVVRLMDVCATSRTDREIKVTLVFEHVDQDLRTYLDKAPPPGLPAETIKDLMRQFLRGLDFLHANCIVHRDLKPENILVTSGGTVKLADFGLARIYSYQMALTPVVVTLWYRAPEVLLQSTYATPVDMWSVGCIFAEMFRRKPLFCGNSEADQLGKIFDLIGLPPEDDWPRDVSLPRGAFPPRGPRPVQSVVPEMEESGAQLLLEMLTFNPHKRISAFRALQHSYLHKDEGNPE
CDK4/Cyclin D1, sequence (P24385 whole entry partner): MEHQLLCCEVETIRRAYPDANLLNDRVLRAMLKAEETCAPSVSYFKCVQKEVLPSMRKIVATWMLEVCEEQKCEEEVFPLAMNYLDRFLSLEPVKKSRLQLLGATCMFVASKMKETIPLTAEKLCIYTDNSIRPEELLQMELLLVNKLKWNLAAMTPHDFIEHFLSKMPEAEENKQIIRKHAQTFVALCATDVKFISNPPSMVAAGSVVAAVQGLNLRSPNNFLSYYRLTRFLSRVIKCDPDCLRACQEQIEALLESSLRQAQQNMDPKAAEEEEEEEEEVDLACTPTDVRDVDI

Broadly, the IC50 is the midpoint of a concentration-inhibition curve. `CNC(=O)c1cnc2ccc(-c3nc(N[C@@H]4CCOC[C@H]4O)ncc3F)cc2c1C(C)C` [Example 1, 6-(5-fluoro-2-(((3S,4R)-3-hydroxytetrahydro-2H-pyran-4-yl)amino)pyrimidin-4-yl)-4-isopropyl-N-methyl quinoline-3-carboxamide]: the figures for the IC50 in experiment [1] and in experiment [2] were 670 nM and 67 nM, respectively.

In the case of `CC(C)c1c(C(C)(C)O)cnc2ccc(-c3nc(N[C@@H]4CCOC[C@H]4O)ncc3F)cc12` [Example 2], the IC50 was 69 nM in experiment [1] and 4.6 nM in experiment [2].

Take `CC(C)c1c(CO)cnc2ccc(-c3nc(N[C@@H]4CCOC[C@H]4O)ncc3F)cc12` [Example 3, (3S,4R)-4-((5-fluoro-4-(3-(hydroxymethyl)-4-isopropylquinolin-6-yl)pyrimidin-2-yl)amino)tetrahydro-2H-pyran-3-ol]: the IC50 in experiment [1] turned out to be 73.5 nM; in experiment [2], 4.9 nM.

With `CC(C)c1ccnc2ccc(-c3nc(N[C@@H]4CCOC[C@H]4O)ncc3Cl)cc12` [Example 4, (3S,4R)-4-((5-chloro-4-(4-isopropylquinolin-6-yl)pyrimidin-2-yl)amino)tetrahydro-2H-pyran-3-ol], the figures for the IC50 in experiment [1] and in experiment [2] were 418 nM and 38 nM, respectively.

Turning to `Cc1cc(C(C)C)c2cc(-c3nc(N[C@@H]4CCOC[C@H]4O)ncc3Cl)ccc2n1` [Example 5, (3S,4R)-4-((5-chloro-4-(4-isopropyl-2-methylquinolin-6-yl)pyrimidin-2-yl)amino)tetrahydro-2H-pyran-3-ol], the IC50 in experiment [1] was 810 nM; in experiment [2], 108 nM.

With `Cc1cnc2ccc(-c3nc(N[C@@H]4CCOC[C@H]4O)ncc3F)cc2c1C(C)C` [Example 6, (3S,4R)-4-((5-fluoro-4-(4-isopropyl-3-methylquinolin-6-yl)pyrimidin-2-yl)amino)tetrahydro-2H-pyran-3-ol], the half-inhibitory concentration (IC50) is 158 nM in experiment [1] and 9.3 nM in experiment [2].

With `Cc1nc2ccc(-c3nc(N[C@@H]4CCOC[C@H]4O)ncc3F)cc2c(C(C)C)c1C` [Example 7, (3S,4R)-4-((5-fluoro-4-(4-isopropyl-2,3-dimethylquinolin-6-yl)pyrimidin-2-yl)amino)tetrahydro-2H-pyran-3-ol], the values for the IC50 in experiment [1] and in experiment [2] were 528 nM and 44 nM, respectively.

For the molecule `CC(C)c1ccnc2ccc(-c3nc(N[C@@H]4CCOC[C@H]4O)ncc3F)cc12` [Example 8, (3S,4R)-4-((5-fluoro-4-(4-isopropylquinolin-6-yl)pyrimidin-2-yl)amino)tetrahydro-2H-pyran-3-ol], the IC50 in experiment [1] was found to be 252 nM; in experiment [2], 14 nM.

On to `Cc1c(-c2nc(N[C@@H]3CCOC[C@H]3O)ncc2F)ccc2nccc(C(C)C)c12` [Example 9, (3S,4R)-4-((5-fluoro-4-(4-isopropyl-5-methylquinolin-6-yl)pyrimidin-2-yl)amino)tetrahydro-2H-pyran-3-ol], for which the IC50 in experiment [1] came to 92.4 nM; in experiment [2] it was 21 nM.

Turning to `Cc1cc(C(C)C)c2cc(-c3nc(N[C@@H]4CCOC[C@H]4O)ncc3F)ccc2n1` [Example 10, (3S,4R)-4-((5-fluoro-4-(4-isopropyl-2-methylquinolin-6-yl)pyrimidin-2-yl)amino)tetrahydro-2H-pyran-3-ol], the IC50 in experiment [1] turned out to be 924 nM; in experiment [2] it was 77 nM.

As to `CC(C)c1c(CN(C)C)cnc2ccc(-c3nc(N[C@@H]4CCOC[C@H]4O)ncc3F)cc12` [Example 11, (3S,4R)-4-((4-(3-((dimethylamino)methyl)-4-isopropylquinolin-6-yl)-5-fluoropyrimidin-2-yl)amino)tetrahydro-2H-pyran-3-ol], the figures for the IC50 in experiment [1] and in experiment [2] were 567 nM and 21 nM, respectively.

As to `CC(C)c1c(CN2CCCC2=O)cnc2ccc(-c3nc(N[C@@H]4CCOC[C@H]4O)ncc3F)cc12` [Example 12, 1-((6-(5-fluoro-2-(((3S,4R)-3-hydroxytetrahydro-2H-pyran-4-yl)amino)pyrimidin-4-yl)-4-isopropylquinolin-3-yl)methyl)pyrrolidin-2-one], the IC50 in experiment [1] stood at 323 nM; in experiment [2], 19 nM.

As to `CC(C)c1c(CN2CCOCC2=O)cnc2ccc(-c3nc(N[C@@H]4CCOC[C@H]4O)ncc3F)cc12` [Example 13, 4-((6-(5-fluoro-2-(((3S,4R)-3-hydroxytetrahydro-2H-pyran-4-yl)amino)pyrimidin-4-yl)-4-isopropylquinolin-3-yl)methyl)morpholin-3-one], the results for the IC50 in experiment [1] and in experiment [2] were 464 nM and 16 nM, respectively.

Take `CC(C)c1c(CN2CC3CC(C2)O3)cnc2ccc(-c3nc(N[C@@H]4CCOC[C@H]4O)ncc3F)cc12` [Example 14, (3S,4R)-4-((4-(3-((6-oxa-3-azabicyclo[3.1.1]heptan-3-yl)methyl)-4-isopropylquinolin-6-yl)-5-fluoropyrimidin-2-yl)amino)tetrahydro-2H-pyran-3-ol]: the IC50 in experiment [1] worked out at 228 nM; in experiment [2] it was 12 nM.

As to `Cc1nc2ccc(-c3nc(N[C@@H]4CCOC[C@H]4O)ncc3F)cc2c(C(C)C)c1CO` [Example 15, (3S,4R)-4-((5-fluoro-4-(3-(hydroxymethyl)-4-isopropyl-2-methylquinolin-6-yl)pyrimidin-2-yl)amino)tetrahydro-2H-pyran-3-ol], the results for the IC50 in experiment [1] and in experiment [2] were 559 nM and 43 nM, respectively.

Turning to `CC(C)c1c(CN2CC(O)C2)cnc2ccc(-c3nc(N[C@@H]4CCOC[C@H]4O)ncc3F)cc12` [Example 16, 1-((6-(5-fluoro-2-(((3S,4R)-3-hydroxytetrahydro-2H-pyran-4-yl)amino)pyrimidin-4-yl)-4-isopropylquinolin-3-yl)methyl)azetidin-3-ol], the half-maximal inhibitory concentration (IC50) in experiment [1] was determined as 600 nM; in experiment [2], 15 nM.

Turning to `CC(C)c1c(CN2CCOCC2)cnc2ccc(-c3nc(N[C@@H]4CCOC[C@H]4O)ncc3F)cc12` [Example 17, (3S,4R)-4-((5-fluoro-4-(4-isopropyl-3-(morpholinomethyl)quinolin-6-yl)pyrimidin-2-yl)amino)tetrahydro-2H-pyran-3-ol], the IC50 in experiment [1] worked out at 187 nM; in experiment [2] it was 11 nM.

Consider `CC(C)c1c(CN2CC[C@H](F)C2)cnc2ccc(-c3nc(N[C@@H]4CCOC[C@H]4O)ncc3F)cc12` [Example 18, (3S,4R)-4-((5-fluoro-4-(3-(((S)-3-fluoropyrrolidin-1-yl)methyl)-4-isopropylquinolin-6-yl)pyrimidin-2-yl)amino)tetrahydro-2H-pyran-3-ol], for which the IC50 in experiment [1] is 598 nM; in experiment [2], 26 nM.

Take `CC(C)c1c(CNC2CCC2)cnc2ccc(-c3nc(N[C@@H]4CCOC[C@H]4O)ncc3F)cc12` [Example 19, (3S,4R)-4-((4-(3-((cyclobutylamino)methyl)-4-isopropylquinolin-6-yl)-5-fluoropyrimidin-2-yl)amino)tetrahydro-2H-pyran-3-ol]: the IC50 stood at 1220 nM in experiment [1] and 20 nM in experiment [2].

As for `CC(C)c1c(CNC2CC(F)(F)C2)cnc2ccc(-c3nc(N[C@@H]4CCOC[C@H]4O)ncc3F)cc12` [Example 20, (3S,4R)-4-((4-(3-(((3,3-difluorocyclobutyl)amino)methyl)-4-isopropylquinolin-6-yl)-5-fluoropyrimidin-2-yl)amino)tetrahydro-2H-pyran-3-ol], the half-maximal inhibitory concentration (IC50) was determined as 600 nM in experiment [1] and 12 nM in experiment [2].

Take `CC(C)c1c(CNC2CCOC2)cnc2ccc(-c3nc(N[C@@H]4CCOC[C@H]4O)ncc3F)cc12` (stereo partly drawn) [Example 21, (3S,4R)-4-((5-fluoro-4-(4-isopropyl-3-(((tetrahydrofuran-3-yl)amino)methyl)quinolin-6-yl)pyrimidin-2-yl)amino)tetrahydro-2H-pyran-3-ol]: the figures for the IC50 in experiment [1] and in experiment [2] were 495 nM and 15 nM, respectively.

With `CC(C)NCc1cnc2ccc(-c3nc(N[C@@H]4CCOC[C@H]4O)ncc3F)cc2c1C(C)C` [Example 22, (3S,4R)-4-((5-fluoro-4-(4-isopropyl-3-((isopropylamino)methyl)quinolin-6-yl)pyrimidin-2-yl)amino)tetrahydro-2H-pyran-3-ol], the results for the IC50 in experiment [1] and in experiment [2] were 398 nM and 7.1 nM, respectively.

Turning to `CC(C)c1c(CN2CC[C@@H](F)C2)cnc2ccc(-c3nc(N[C@@H]4CCOC[C@H]4O)ncc3F)cc12` [Example 23, (3S,4R)-4-((5-fluoro-4-(3-(((R)-3-fluoropyrrolidin-1-yl)methyl)-4-isopropylquinolin-6-yl)pyrimidin-2-yl)amino)tetrahydro-2H-pyran-3-ol], the IC50 in experiment [1] was 361 nM; in experiment [2], 19 nM.

In the case of `CC(C)c1c(CNC[C@H]2CCCO2)cnc2ccc(-c3nc(N[C@@H]4CCOC[C@H]4O)ncc3F)cc12` [Example 24, (3S,4R)-4-((5-fluoro-4-(4-isopropyl-3-(((((R)-tetrahydrofuran-2-yl)methyl)amino)methyl)quinolin-6-yl)pyrimidin-2-yl)amino)tetrahydro-2H-pyran-3-ol], the IC50 in experiment [1] was found to be 620 nM; in experiment [2] it was 20 nM.
